Test results published in US10626081B2, “Farnesoid X receptor agonists and uses thereof” (Metacrine, Inc., priority 2015, dated 2020).

Legend:
FXR [1] = target: T1, FXR (Homo sapiens, UniProt Q96RI1); assay: In Vitro FXR Assay (PGL3): luciferase reporter in transfected CV-1 cells; format: cell-based; details: CV-1 cells transfected with hFXR, hRXR, PGL3-ECRE*6-luc; 18 h incubation; luminescence
T1 construct: expressed in transfected cells; host or cells: CV-1 cells
T1 sequence (Q96RI1 1-486): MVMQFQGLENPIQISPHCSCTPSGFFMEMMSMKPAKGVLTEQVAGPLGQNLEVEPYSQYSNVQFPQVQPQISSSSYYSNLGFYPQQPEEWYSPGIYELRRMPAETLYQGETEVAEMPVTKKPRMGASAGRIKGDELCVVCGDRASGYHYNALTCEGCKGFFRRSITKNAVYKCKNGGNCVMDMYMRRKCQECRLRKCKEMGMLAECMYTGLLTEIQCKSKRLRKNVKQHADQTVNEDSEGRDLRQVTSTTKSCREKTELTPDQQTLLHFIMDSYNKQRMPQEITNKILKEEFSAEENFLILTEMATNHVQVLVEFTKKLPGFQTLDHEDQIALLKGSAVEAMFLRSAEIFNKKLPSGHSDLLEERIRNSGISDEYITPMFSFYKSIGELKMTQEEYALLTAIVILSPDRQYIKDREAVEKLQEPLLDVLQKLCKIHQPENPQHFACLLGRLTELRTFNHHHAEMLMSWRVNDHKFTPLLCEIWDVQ
T1 sequence (P19793 1-462 partner): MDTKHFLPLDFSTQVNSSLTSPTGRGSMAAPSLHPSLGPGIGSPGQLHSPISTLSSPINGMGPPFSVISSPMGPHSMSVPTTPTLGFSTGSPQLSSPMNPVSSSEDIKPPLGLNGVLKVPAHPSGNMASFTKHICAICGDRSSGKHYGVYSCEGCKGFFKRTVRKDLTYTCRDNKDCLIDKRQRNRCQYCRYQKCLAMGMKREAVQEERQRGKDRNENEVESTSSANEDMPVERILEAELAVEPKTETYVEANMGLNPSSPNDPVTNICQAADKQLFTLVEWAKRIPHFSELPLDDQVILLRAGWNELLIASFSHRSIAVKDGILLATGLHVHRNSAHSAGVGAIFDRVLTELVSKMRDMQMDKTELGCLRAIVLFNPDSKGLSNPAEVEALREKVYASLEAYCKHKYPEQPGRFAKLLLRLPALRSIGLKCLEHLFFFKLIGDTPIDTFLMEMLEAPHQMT
Outline: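 CV-1 cells in charcoal-stripped FBS were transiently co-transfected with full-length human FXR, RXR, an ECRE×6-luciferase reporter, β-gal and YFP plasmids. Transfected cells were reseeded onto half-log compound dilutions and incubated 18 h. Luciferase luminescence was read after lysis, and EC50 was determined.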

FXR [2] = target: T1, FXR; assay: In Vitro FXR Assay (TK): TK-ECRE-luc reporter in transfected CV-1 cells; format: cell-based; details: CV-1 cells transfected with hFXR, hRXR, 18 h incubation, luminescence
Outline: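 CV-1 cells in charcoal-stripped FBS medium were transiently cotransfected with hFXR, hRXR, TK-ECRE-luc and pCMX-YFP plasmids. After 18 h, compounds serially diluted in DMSO were added for 18 h at 37 °C, 5% CO2, then cells were lysed and luminescence read.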

SMILES | Cmpd/Fex (ratio of the EC50 for the test compound relative to the EC50 of the Fexaramine control) (FXR [1]) | EC50 (FXR [2])
COC(=O)/C=C/c1cccc(N(Cc2ccc(-c3cccc(O)c3)cc2)C(=O)C2CCCCC2)c1 [compound 55, (E)-Methyl 3-(3-(N-((3′-hydroxy-[1,1′-biphenyl]-4-yl)methyl)cyclohexanecarboxamido)phenyl) acrylate] | + (‘+’ means Cmpd/Fex > 100) | > 10 µM
COC(=O)/C=C/c1cccc(N(Cc2ccc(-c3ccc(O)cc3)cc2)C(=O)C2CCCCC2)c1 [compound 57, (E)-Methyl 3-(3-(N-((4′-hydroxy-[1,1′-biphenyl]-4-yl)methyl)cyclohexanecarboxamido)phenyl) acrylate] | + (‘+’ means Cmpd/Fex > 100) | > 10 µM
COC(=O)/C=C/c1cccc(N(Cc2ccc(-c3ccc(C(F)(F)F)cc3)cc2)C(=O)C2CCCCC2)c1 [compound 36, (E)-Methyl 3-(3-(N-((4′-(trifluoromethyl)-[1,1′-biphenyl]-4-yl)methyl)cyclohexanecarboxamido)phenyl)acrylate] | ++ (‘++’ means Cmpd/Fex > 10 & < 100) | 1 to 10 µM
COC(=O)/C=C/c1cccc(N(Cc2ccc(-c3ccc(F)cc3)cc2)C(=O)C2CCCCC2)c1 [compound 25, (E)-Methyl 3-(3-(N-((4′-fluoro-[1,1′-biphenyl]-4-yl)methyl)cyclohexanecarboxamido)phenyl)acrylate] | ++ (‘++’ means Cmpd/Fex > 10 & < 100) | 1 to 10 µM
COC(=O)/C=C/c1cc(C)cc(N(Cc2ccc(-c3ccc(N(C)C)cc3)cc2)C(=O)C2CCCCC2)c1 [compound 39, (E)-Methyl 3-(3-(N-((4′-(dimethylamino)-[1,1′-biphenyl]-4-yl)methyl)cyclohexanecarboxamido)-5-methylphenyl)acrylate] | +++ (‘+++’ means Cmpd/Fex < 10) | 1 to 10 µM
COC(=O)CC(C)c1cccc(N(Cc2ccc(-c3ccc(N(C)C)cc3)cc2)C(=O)C2CCCCC2)c1 (stereo not drawn) [compound 94, Methyl 3-(3-(N-((4′-(dimethylamino)-[1,1′-biphenyl]-4-yl)methyl)cyclohexanecarboxamido)phenyl) butanoate] | ++ (‘++’ means Cmpd/Fex > 10 & < 100) | 1 to 10 µM
COC(=O)/C=C/c1cccc(N(Cc2ccc(-c3ccc(C(C)C)cc3)cc2)C(=O)C2CCCCC2)c1 [compound 70, (E)-Methyl 3-(3-(N-((4′-isopropyl-[1,1′-biphenyl]-4-yl)methyl)cyclohexanecarboxamido)phenyl) acrylate] | +++ (‘+++’ means Cmpd/Fex < 10) | 1 to 10 µM
COC(=O)/C=C/c1cccc(N(Cc2ccc(-c3cnn(C)c3)cc2)C(=O)C2CCCCC2)c1 [compound 28, (E)-Methyl 3-(3-(N-(4-(1-methyl-1H-pyrazol-4-yl)benzyl)cyclohexanecarboxamido)phenyl)acrylate] | ++ (‘++’ means Cmpd/Fex > 10 & < 100) | 1 to 10 µM
COC(=O)/C=C/c1cccc(N(Cc2ccc(-c3cccc(F)c3)cc2)C(=O)C2CCCCC2)c1 [compound 26, (E)-Methyl 3-(3-(N-((3′-fluoro-[1,1′-biphenyl]-4-yl)methyl)cyclohexanecarboxamido)phenyl)acrylate] | +++ (‘+++’ means Cmpd/Fex < 10) | 1 to 10 µM
COC/C=C/c1cccc(N(Cc2ccc(-c3ccc(N(C)C)cc3)cc2)C(=O)C2CCCCC2)c1 [compound 44, (E)-N-((4′-(Dimethylamino)-[1,1′-biphenyl]-4-yl)methyl)-N-(3-(3-methoxyprop-1-en-1-yl)phenyl)cyclohexanecarboxamide] | +++ (‘+++’ means Cmpd/Fex < 10) | 1 to 10 µM

Next, values leading:

Cmpd/Fex (ratio of the EC50 for the test compound relative to the EC50 of the Fexaramine control) (FXR [1]) | EC50 (FXR [2]) | SMILES
+ (‘+’ means Cmpd/Fex > 100) | 1 to 10 µM | COC(=O)/C=C/c1cccc(N(Cc2ccc(N3CCOCC3)cc2)C(=O)C2CCCCC2)c1 [compound 77, (E)-Methyl 3-(3-(N-(4-morpholinobenzyl)cyclohexane-carboxamido)phenyl)acrylate]
++ (‘++’ means Cmpd/Fex > 10 & < 100) | 1 to 10 µM | COC(=O)/C=C/c1cccc(N(Cc2ccc(-c3ccc(N(C)C)cc3)cc2)C(=O)C2COC2)c1 [compound 6, (E)-Methyl 3-(3-(N-((4′-(dimethylamino)-[1,1′-biphenyl]-4-yl)methyl)oxetane-3-carboxamido)phenyl)acrylate]
+++ (‘+++’ means Cmpd/Fex < 10) | 1 to 10 µM | COC(=O)/C=C/c1cccc(N(Cc2ccc(-c3ccc(N4CCCC4)cc3)cc2)C(=O)C2CCCCC2)c1 [compound 48, (E)-Methyl 3-(3-(N-((4′-(pyrrolidin-1-yl)-[1,1′-biphenyl]-4-yl)methyl)cyclohexanecarboxamido)phenyl) acrylate]
+++ (‘+++’ means Cmpd/Fex < 10) | ≤ 1 µM | COC(=O)/C=C/c1cccc(N(Cc2ccc(-c3ccc(N(C)C)cc3)cc2F)C(=O)C2CCCCC2)c1 [compound 51, (E)-methyl 3-(3-(N-((4′-(dimethylamino)-3-fluoro-[1,1′-biphenyl]-4-yl)methyl)cyclohexanecarboxamido)phenyl)acrylate]
+++ (‘+++’ means Cmpd/Fex < 10) | 1 to 10 µM | COC(=O)/C=C/c1cccc(N(Cc2ccc(-c3ccc(N(C)C)cc3)cc2)C(=O)c2ccc(C#N)cc2)c1 [compound 4, (E)-Methyl 3-(3-(4-cyano-N-((4′-(dimethylamino)-[1,1′-biphenyl]-4-yl)methyl)benzamido)phenyl)acrylate]
+ (‘+’ means Cmpd/Fex > 100) | 1 to 10 µM | COC(=O)CCc1cccc(N(Cc2ccc(-c3ccc(N(C)C)cc3)cc2)C(=O)C2CCCCC2)c1C [compound 92, Methyl 3-(3-(N-((4′-(dimethylamino)-[1,1′-biphenyl]-4-yl)methyl)cyclohexanecarboxamido)-2-methylphenyl)propanoate]
+++ (‘+++’ means Cmpd/Fex < 10) | 1 to 10 µM | COC(=O)/C=C/c1cccc(N(Cc2ccc(-c3ccc(N(C)C)cc3)c(C)c2)C(=O)C2CCCCC2)c1 [compound 53, (E)-Methyl 3-(3-(N-((4′-(dimethylamino)-2-methyl-[1,1′-biphenyl]-4-yl)methyl)cyclohexanecarboxamido)phenyl) acrylate]
++ (‘++’ means Cmpd/Fex > 10 & < 100) | 1 to 10 µM | COC(=O)/C=C/c1cccc(N(Cc2ccc(-c3cccnc3)cc2)C(=O)C2CCCCC2)c1 [compound 29, (E)-Methyl 3-(3-(N-(4-(pyridin-3-yl)benzyl)cyclohexanecarboxamido)phenyl) acrylate]
+ (‘+’ means Cmpd/Fex > 100) | 1 to 10 µM | COC(=O)/C=C/c1cccc(N(Cc2ccc(-c3ccccn3)cc2)C(=O)C2CCCCC2)c1 [compound 65, (E)-Methyl 3-(3-(N-(4-(pyridin-2-yl)benzyl)cyclohexanecarboxamido)phenyl) acrylate]
+++ (‘+++’ means Cmpd/Fex < 10) | 1 to 10 µM | COC(=O)/C=C/c1cccc(N(Cc2ccc(-c3ccccc3F)cc2)C(=O)C2CCCCC2)c1 [compound 27, (E)-Methyl 3-(3-(N-((2′-fluoro-[1,1′-biphenyl]-4-yl)methyl)cyclohexanecarboxamido)phenyl) acrylate]
+++ (‘+++’ means Cmpd/Fex < 10) | 1 to 10 µM | COC(=O)/C=C/c1cccc(N(Cc2ccc(-c3ccccc3C)cc2)C(=O)C2CCCCC2)c1 [compound 21, (E)-Methyl 3-(3-(N-((2′-methyl-[1,1′-biphenyl]-4-yl)methyl)cyclohexanecarboxamido)phenyl)acrylate]
